Data as given in US10154990B2, “Medicaments for the treatment or prevention of fibrotic diseases” (Boehringer Ingelheim International GmbH, priority 2004, dated 2018).

Legend:
fibrotic marker genes = assay: Expression of fibrotic marker genes in lung following bleomycin-induced pulmonary fibrosis (real time PCR); assay type: in vivo, Male Wistar rats; details: bleomycin-treated rats, daily 50 mg/kg, days 1-21, real time PCR normalized to 18S
Experimental: (B) Effect of a Representative Compound on Expression of Fibrotic Marker Genes Following Bleomycin-induced Pulmonary Fibrosis.
One part of the frozen lung tissue dedicated to investigation of gene expression was cut into small pieces using a sterile scalpel blade. Approximately 100 mg of tissue was then placed into a 2 ml Eppendorf tube and 1.5 ml of Trizol (Invitrogen) was added. A sterile tungsten carbide bead (Qiagen) was then added to the tube and the tube was placed in a Retsch MM300 Tissue disruptor (Qiagen) at a frequency of 30.0 Hz for 8 minutes. After this time, the bead was removed and the sample centrifuged at 12000 rpm for 10 minutes to remove tissue debris. The RNA was extracted using a modified version of the manufacturer's protocol supplied with Trizol. […] The concentration of each sample was then measured using a spectrophotometer. […]
Real Time PCR was carried out in 25 μl reactions, using 25 ng (5 μl) of cDNA per reaction. A quantitative PCR core kit was purchased (Eurogentec) and a master-mix was made up as follows for 100 reactions: 500 μl 10× reaction buffer, 500 μl MgCl2 (50 mM), 200 μl dNTP mix solution (5 mM), 25 μl Hot Goldstar enzyme, 75 μl 18S PDAR, 22.5 μl forward primer, 22.5 μl reverse primer, 15 μl probe and […] DEPC treated water. […]
In order to quantify the gene expression, a standard curve was constructed for each primer set and was included on each plate. […]

[1] = tested on: Bleomycin-induced Pulmonary Fibrosis; assay: Lung morphology following bleomycin-induced pulmonary fibrosis (histology, Masson's Trichrome); assay type: in vivo, Male Wistar rats; details: bleomycin-treated rats (10 U/kg intratracheal), daily oral treatment with 50 mg/kg, days 1-21, lungs removed 21 days after instillation
Experimental: (A) Effect of a Representative Compound on Lung Morphology Following Bleomycin-induced Pulmonary Fibrosis. Bleomycin sulfate (Bleomycin […]) was purchased from a local pharmacy. All experiments were performed in accordance with German guidelines for animal welfare, performed by persons certified to work with animals and approved by the responsible authorities. Male Wistar rats were intratracheally injected with Bleomycin sulfate (10U/kg body weight in 300 μl saline) or saline alone (saline control) using a catheter (0.5 mm internal diameter, 1.0 mm external diameter) through the nasal passage, following exposure to the anaesthetic Isofluorane for 5 minutes. The following day, the rats were orally treated with Example A (compound (m)) or saline suspended in 1 ml 0.1% Natrosol. Control rats were administered 1 ml 0.1% Natrosol (vehicle control). [table] 21 days following bleomycin instillation, the rats were killed with a lethal intraperitoneal injection of NarcorenTM (Pentobarbital Sodium, Rhone Merieux). The lungs were then removed, blotted dry and half was snap frozen in liquid nitrogen and stored at -80° C. The other half was fixed in 4% formalin for subsequent paraffin embedding and histology. […] Collagen deposition was assessed using Masson's Trichrome staining. […]

Compound `COC(=O)c1ccc2c(c1)NC(=O)/C2=C(\Nc1ccc(N(C)C(=O)CN(C)C)c(C#N)c1)c1ccccc1` [(v), 3-Z-[1-(3-cyano-4-(N-dimethylaminomethylcarbonyl-N-methyl-amino)-anilino)-1-phenyl-methylene]-6-methoxycarbonyl-2-indolinone] has a melting point of 163 to 165 °C.

With `COC(=O)c1ccc2c(c1)NC(=O)/C2=C(\Nc1ccc(N(C)C(=O)CN(C)C)c(OC)c1)c1ccccc1` [(w), 3-Z-[1-(3-methoxy-4-(N-dimethylaminomethylcarbonyl-N-methyl-amino)-anilino)-1-phenyl-methylene]-6-methoxycarbonyl-2-indolinone] the melting point was 160 to 163 °C.

For `COC(=O)c1ccc2c(c1)NC(=O)/C2=C(\Nc1ccc(N(C)C(=O)CN)cc1)c1ccccc1` [(x), 3-Z-[1-(4-(N-aminomethylcarbonyl-N-methyl-amino)-anilino)-1-phenyl-methylene]-6-methoxycarbonyl-2-indolinone], the melting point was 221 °C.

Compound `COC(=O)c1ccc2c(c1)NC(=O)/C2=C(\Nc1ccc(N(C)C(=O)C(N)(CCO)CCO)cc1)c1ccccc1` [(z), 3-Z-[1-(4-(N-(di-(2-hydroxy-ethyl)-amino-methylcarbonyl)-N-methyl-amino)-anilino)-1-phenyl-methylene]-6-methoxycarbonyl-2-indolinone] has a melting point of 199 to 202 °C.

With `COC(=O)c1ccc2c(c1)NC(=O)/C2=C(\Nc1ccc(N(C)C(=O)CN(C)C)cc1)c1ccccc1` [Compound (m), 3-Z-[1-(4-(N-dimethylaminomethylcarbonyl-N-methyl-amino)-anilino)-1-phenyl-methylene]-6-methoxycarbonyl-indolinone] the “expression of fibrotic marker genes (procollagen I, fibronectin) in the lung” value (fibrotic marker genes; FIGS. 2 and 3, vs bleomycin + vehicle) was “significant (p≤0.0001) inhibition” and the “lung fibrosis (lung morphology, collagen deposition by Masson's Trichrome staining)” value [1] was “consistent, nearly complete reversal of lung fibrosis”.

For `COC(=O)c1ccc2c(c1)NC(=O)/C2=C(\Nc1ccc(N(C)C(=O)CN2CCN(C)CC2)cc1)c1ccccc1` [Compound (u), 3-Z-[1-(4-(N-((4-methyl-piperazin-1-yl)-methylcarbonyl)-N-methyl-amino)-anilino)-1-phenyl-methylene]-6-methoxycarbonyl-2-indolinone], the “expression of fibrotic marker genes (procollagen I, TGFb) in the lung” value (fibrotic marker genes; FIGS. 5 and 6, vs bleomycin + vehicle) was “significant (p≤0.0001) inhibition” and the “lung fibrosis (lung morphology, collagen deposition by Masson's Trichrome staining)” value [1] was “consistent, nearly complete reversal of lung fibrosis”.
